In ChEMBL document CHEMBL1124462, “Synthesis, DNA binding, and biological evaluation of synthetic precursors and novel analogues of netropsin” (J Med Chem, 1989):
Values after ≈ are worked out from the molar mass of the structure shown.

System: Vaccinia virus
Experiment: Minimum inhibitory concentration required to reduce vaccinia virus induced cytopathogenicity by 50% in primary rabbit kidney cells (PRK)
Assay type: functional
Conditions: Orthopoxvirus vaccinia

| SMILES | MIC |
| --- | --- |
| Cn1cc([N+](=O)[O-])cc1C(=O)NCCC#N | > 200 µg/mL |
| Cn1c(C(=O)NCCC#N)ccc1[N+](=O)[O-] | > 200 µg/mL |
| COC(=O)c1ccc([N+](=O)[O-])n1C | > 400 µg/mL |
| Cn1cc(NC(=O)c2cc([N+](=O)[O-])cn2C)cc1C(=O)O | > 400 µg/mL |
| CC(NC(=O)C(C)NC(=O)c1cc(NC(=O)c2cc(NC(=O)CNC(=N)N)cn2C)cn1C)C(=O)O (centres undefined) | > 400 µg/mL |
| CC(NC(=O)c1cc(NC(=O)c2cc(NC(=O)CNC(=N)N)cn2C)cn1C)C(=O)O (centres undefined) | > 200 µg/mL |
| CC(NC(=O)c1cc(NC(=O)c2cc(NC(=O)CNC(=N)N)cn2C)cn1C)C(=O)OC(C)(C)C (centres undefined) | 150 µg/mL (≈ 307 µM) |
| Cn1cc(NC(=O)c2cc(NC(=O)CNC(=N)N)cn2C)cc1C(=O)NCCCNCCCCN | > 200 µg/mL |
| CC(NC(=O)c1cc(NC(=O)c2cc(NC(=O)CNC(=N)N)cn2C)cn1C)C(=O)NC(C)C(=O)OC(C)(C)C (centres undefined) | > 200 µg/mL |
| Cn1cc(NC(=O)CNC(=N)N)cc1C(=O)NCCCNCCCCN | > 400 µg/mL |
| CC(NC(=O)c1cc(NC(=O)c2cc([N+](=O)[O-])cn2C)cn1C)C(=O)OC(C)(C)C (centres undefined) | > 40 µg/mL |
| Cn1cc(NC(=O)c2cc([N+](=O)[O-])cn2C)cc1C(=O)NCCC#N | > 10 µg/mL |
| Cn1cc(NC(=O)c2cc([N+](=O)[O-])cn2C)cc1C(=O)NCCC(=N)N | > 100 µg/mL |
| CC(NC(=O)c1cc(NC(=O)c2cc([N+](=O)[O-])cn2C)cn1C)C(=O)NC(C)C(=O)OC(C)(C)C (centres undefined) | > 100 µg/mL |
| Cn1cc([N+](=O)[O-])cc1C(=O)O | > 400 µg/mL |
| Cn1c(C(=O)O)ccc1[N+](=O)[O-] | > 200 µg/mL |
| COC(=O)c1cc(NC(=O)c2cc([N+](=O)[O-])cn2C)cn1C | > 10 µg/mL |
| C[C@H](NC(=O)[C@H](C)NC(=O)[C@H](C)NC(=O)c1cc(NC(=O)c2cc(NC(=O)CNC(=N)N)cn2C)cn1C)C(=O)O | > 400 µg/mL |
| C[C@H](NC(=O)c1cc(NC(=O)c2cc(NC(=O)CNC(=N)N)cn2C)cn1C)C(=O)N[C@@H](C)C(=O)N[C@@H](C)C(=O)OC(C)(C)C | > 100 µg/mL |
| C[C@H](NC(=O)c1cc(NC(=O)c2cc([N+](=O)[O-])cn2C)cn1C)C(=O)N[C@@H](C)C(=O)N[C@@H](C)C(=O)OC(C)(C)C | > 100 µg/mL |
| Cn1cc([N+](=O)[O-])cc1C(=O)NCCC(=N)N | > 200 µg/mL |
| Cn1c(C(=O)NCCC(=N)N)ccc1[N+](=O)[O-] | > 100 µg/mL |
| Cn1cc([N+](=O)[O-])cc1C(=O)NCCCNCCCCN | > 200 µg/mL |
| Cn1cc(NC(=O)c2cc([N+](=O)[O-])cn2C)cc1C(=O)NCCCNCCCCN | > 200 µg/mL |
| Nc1nccc2c1ncn2[C@@H]1C[C@H](CO)[C@@H](O)[C@H]1O [3-DEAZAARISTEROMYCIN A] | 2 µg/mL (≈ 7.57 µM) |
| Nc1ncnc2c1ncn2C[C@H](O)CO [(S)-DHPA] | 70 µg/mL (≈ 335 µM) |
| Cn1cc(NC(=O)c2cc(NC(=O)CNC(=N)N)cn2C)cc1C(=O)NCCC(=N)N [NETROPSIN] | 70 µg/mL (≈ 163 µM) |
| NC(=O)c1ncn([C@@H]2O[C@H](CO)[C@@H](O)[C@H]2O)n1 [RIBAVIRIN] | 2 µg/mL (≈ 8.19 µM) |
| Nc1ncnc2c1ccn2[C@@H]1O[C@H](CO)[C@@H](O)[C@H]1O [TUBERCIDIN] | 0.07 µg/mL (≈ 0.263 µM) |
